Laboratory results taken from ChEMBL document CHEMBL3885881, “DrugMatrix”.

Species: Rattus norvegicus
Assay: DrugMatrix - Regimen: Daily Repeat
Assay type: toxicity, organism-based, Sprague-Dawley
Set-up: regimen Daily Repeat, gender Male, age 6-8 weeks
Conditions: in vivo, po, route oral GAVAGE, vehicle .5 % CMC; for ABSOLUTE BASOPHIL / ABSOLUTE EOSINOPHIL / ABSOLUTE LYMPHOCYTE / ABSOLUTE MONOCYTE / ABSOLUTE SEGMENTED NEUTROPHIL / BASOPHIL / EOSINOPHIL / ERYTHROCYTE COUNT / HEMATOCRIT / HEMOGLOBIN / LEUKOCYTE COUNT / LYMPHOCYTE / MEAN CORPUSCULAR HEMOGLOBIN / MEAN CORPUSCULAR HEMOGLOBIN CONCENTRATION / MEAN CORPUSCULAR VOLUME / MONOCYTE / NEUTROPHIL / NUCLEATED RED BLOOD CELLS / PLATELET COUNT: tissue Blood; for ALANINE AMINOTRANSFERASE / ALBUMIN / ALKALINE PHOSPHATASE / ASPARTATE AMINOTRANSFERASE / BLOOD UREA NITROGEN / CARBON DIOXIDE / CHLORIDE / CHOLESTEROL / CREATINE PHOSPHOKINASE / CREATININE / GLUCOSE / LACTATE DEHYDROGENASE / LIPASE / PHOSPHORUS / POTASSIUM / SODIUM / TOTAL BILIRUBIN / TOTAL PROTEIN / URIC ACID: tissue Plasma
[1] = 3 mg/kg, 120 h, dose level Low, time 5 day
[2] = 30 mg/kg, 72 h, dose level High, time 3 day
[3] = 30 mg/kg, 120 h, dose level High, time 5 day

CC(=O)Nc1ccc2c(c1)Cc1ccccc1-2 [2-ACETYLAMINOFLUORENE]
ABSOLUTE BASOPHIL [1]: 0 CELLS/uL
ABSOLUTE EOSINOPHIL [1]: 0 CELLS/uL
ABSOLUTE LYMPHOCYTE [1]: 14012 CELLS/uL
ABSOLUTE MONOCYTE [1]: 174.33 CELLS/uL
ABSOLUTE SEGMENTED NEUTROPHIL [1]: 1113.67 CELLS/uL
BASOPHIL [1]: 0%
EOSINOPHIL [1]: 0%
ERYTHROCYTE COUNT [1]: 5.69 x10E6/uL
HEMATOCRIT [1]: 34.77%
HEMOGLOBIN [1]: 13.53 G/DL
LEUKOCYTE COUNT [1]: 15.3 x10E3/uL
LYMPHOCYTE [1]: 92%
MEAN CORPUSCULAR HEMOGLOBIN [1]: 23.73 pg
MEAN CORPUSCULAR HEMOGLOBIN CONCENTRATION [1]: 39 G/DL
MEAN CORPUSCULAR VOLUME [1]: 61 fL
MONOCYTE [1]: 1%
NEUTROPHIL [1]: 7%
NUCLEATED RED BLOOD CELLS [1]: 0 /100WBC
PLATELET COUNT [1]: 1174.67 x10E3/uL
ALANINE AMINOTRANSFERASE [1]: 51 u/L
ALBUMIN [1]: 4.03 G/DL
ALKALINE PHOSPHATASE [1]: 355 u/L
ASPARTATE AMINOTRANSFERASE [1]: 106.67 u/L
BLOOD UREA NITROGEN [1]: 16.67 mg/dL
CARBON DIOXIDE [1]: 29.67 mmol/L
CHLORIDE [1]: 98 MEQ/L
CHOLESTEROL [1]: 70.67 mg/dL
CREATINE PHOSPHOKINASE [1]: 459.33 u/L
CREATININE [1]: 0.16 mg/dL
GLUCOSE [1]: 147 mg/dL
LACTATE DEHYDROGENASE [1]: 770.33 u/L
LIPASE [1]: 9.67 u/L
PHOSPHORUS [1]: 11.37 mg/dL
POTASSIUM [1]: 6.6 MEQ/L
SODIUM [1]: 139.93 MEQ/L
TOTAL BILIRUBIN [1]: 0.23 mg/dL
TOTAL PROTEIN [1]: 5.9 G/DL
URIC ACID [1]: 1.5 mg/dL
ABSOLUTE BASOPHIL [2]: 0 CELLS/uL
ABSOLUTE EOSINOPHIL [2]: 86 CELLS/uL
ABSOLUTE LYMPHOCYTE [2]: 12836 CELLS/uL
ABSOLUTE MONOCYTE [2]: 177.33 CELLS/uL
ABSOLUTE SEGMENTED NEUTROPHIL [2]: 1034 CELLS/uL
BASOPHIL [2]: 0%
EOSINOPHIL [2]: 0.67%
ERYTHROCYTE COUNT [2]: 5.86 x10E6/uL
HEMATOCRIT [2]: 36.83%
HEMOGLOBIN [2]: 14.6 G/DL
LEUKOCYTE COUNT [2]: 14.13 x10E3/uL
LYMPHOCYTE [2]: 90.67%
MEAN CORPUSCULAR HEMOGLOBIN [2]: 24.9 pg
MEAN CORPUSCULAR HEMOGLOBIN CONCENTRATION [2]: 39.6 G/DL
MEAN CORPUSCULAR VOLUME [2]: 62.87 fL
MONOCYTE [2]: 1.33%
NEUTROPHIL [2]: 7.33%
NUCLEATED RED BLOOD CELLS [2]: 0 /100WBC
PLATELET COUNT [2]: 1279.33 x10E3/uL
ALANINE AMINOTRANSFERASE [2]: 53.67 u/L
ALBUMIN [2]: 3.73 G/DL
ALKALINE PHOSPHATASE [2]: 368.67 u/L
ASPARTATE AMINOTRANSFERASE [2]: 126.33 u/L
BLOOD UREA NITROGEN [2]: 15 mg/dL
CARBON DIOXIDE [2]: 22.67 mmol/L
CHLORIDE [2]: 102 MEQ/L
CHOLESTEROL [2]: 53 mg/dL
CREATINE PHOSPHOKINASE [2]: 1143.67 u/L
CREATININE [2]: 0.21 mg/dL
GLUCOSE [2]: 158.67 mg/dL
LACTATE DEHYDROGENASE [2]: 858.33 u/L
LIPASE [2]: 10.33 u/L
PHOSPHORUS [2]: 10.73 mg/dL
POTASSIUM [2]: 6.07 MEQ/L
SODIUM [2]: 142.33 MEQ/L
TOTAL BILIRUBIN [2]: 0.2 mg/dL
TOTAL PROTEIN [2]: 5.3 G/DL
URIC ACID [2]: 1.47 mg/dL
ABSOLUTE BASOPHIL [3]: 0 CELLS/uL
ABSOLUTE EOSINOPHIL [3]: 0 CELLS/uL
ABSOLUTE LYMPHOCYTE [3]: 17906.67 CELLS/uL
ABSOLUTE MONOCYTE [3]: 125.33 CELLS/uL
ABSOLUTE SEGMENTED NEUTROPHIL [3]: 368 CELLS/uL
BASOPHIL [3]: 0%
EOSINOPHIL [3]: 0%
ERYTHROCYTE COUNT [3]: 6.43 x10E6/uL
HEMATOCRIT [3]: 39.07%
HEMOGLOBIN [3]: 15.4 G/DL
LEUKOCYTE COUNT [3]: 18.4 x10E3/uL
LYMPHOCYTE [3]: 97.33%
MEAN CORPUSCULAR HEMOGLOBIN [3]: 24 pg
MEAN CORPUSCULAR HEMOGLOBIN CONCENTRATION [3]: 39.43 G/DL
MEAN CORPUSCULAR VOLUME [3]: 60.83 fL
MONOCYTE [3]: 0.67%
NEUTROPHIL [3]: 2%
NUCLEATED RED BLOOD CELLS [3]: 0 /100WBC
PLATELET COUNT [3]: 1336 x10E3/uL
ALANINE AMINOTRANSFERASE [3]: 44 u/L
ALBUMIN [3]: 3.8 G/DL
ALKALINE PHOSPHATASE [3]: 317.33 u/L
ASPARTATE AMINOTRANSFERASE [3]: 100.33 u/L
BLOOD UREA NITROGEN [3]: 20.33 mg/dL
CARBON DIOXIDE [3]: 27.33 mmol/L
CHLORIDE [3]: 104.33 MEQ/L
CHOLESTEROL [3]: 46.67 mg/dL
CREATINE PHOSPHOKINASE [3]: 551.33 u/L
CREATININE [3]: 0.22 mg/dL
GLUCOSE [3]: 146.33 mg/dL
LACTATE DEHYDROGENASE [3]: 501 u/L
LIPASE [3]: 9.33 u/L
PHOSPHORUS [3]: 11.33 mg/dL
POTASSIUM [3]: 6.51 MEQ/L
SODIUM [3]: 146.97 MEQ/L
TOTAL BILIRUBIN [3]: 0.17 mg/dL
TOTAL PROTEIN [3]: 5.4 G/DL
URIC ACID [3]: 1.93 mg/dL
